These results are taken from patent publication US20060040931A1, “Benzomorpholine derivatives” (Toray Industries, Inc., priority 2002, published 2006).

The first assay concerns human platelet aggregation. Kind of assay: Human platelet aggregation inhibitory test (ADP-induced, platelet rich plasma). Format: cell-based. As to conditions: human PRP, 5 μM ADP, compound added 1 minute before ADP, turbidity (aggregometer), read-out: Platelet Aggregation Inhibitory Effect IC50. The procedure:
Blood collected from human median cubital vein was centrifuged at 800 rpm for 10 minutes. Upper portion of the resultant was collected as platelet rich plasma (PRP). PRP was dispensed to small test tubes, and 5 μM of ADP was added thereto to induce platelet aggregation. The degree of platelet aggregation was measured as a change in turbidity using an aggregometer (Hematracer 1, Nikobioscience). Each compound was added 1 minute before ADP addition, and calculation was carried out using as an IC50 value a concentration that inhibits aggregation by 50%.
For `O=C(O)COc1cccc2c1OCCN2CCN(C(=O)c1ccccc1)c1ccc(Cl)cc1` [Example 1-14], the IC50 worked out at 13 nM.
For `Cc1ccc(N(CCN2CCOc3c(OCC(=O)O)cccc32)C(=O)c2ccccc2)cc1` [Example 1-16], the IC50 is 5.3 nM.
Still for that read-out and setting: to `Cc1ccc(C(=O)N(CCN2CCOc3c(OCC(=O)O)cccc32)c2ccc(C)cc2)cc1` [Example 1-28] belongs 5.9 nM; to `CSc1ccc(N(CCN2CCOc3c(OCC(=O)O)cccc32)C(=O)c2ccccc2)cc1` [Example 1-40], 14 nM; to `O=C(O)COc1cccc2c1OCCN2CCN(C(=O)c1ccccc1)c1ccc(Cl)cc1Cl` [Example 1-49], 18 nM.
Same read-out and setting: under `O=C(O)COc1cccc2c1OCCN2CCN(C(=O)c1ccccc1)c1ccc(Cl)cc1F` [Example 1-63] stands 8.8 nM; under `Cc1ccc(C(=O)N(CCN2CCOc3c(OCC(=O)O)cccc32)c2ccc(Br)cc2)cc1` [Example 2-4], 27 nM.
On the same count and under the same terms, under `O=C(O)COc1cccc2c1OCCN2CCN(C(=O)C1=CCCCC1)c1ccc(Br)cc1` [Example 2-27] stands 55 nM.

In a further assay the test system is platelet aggregation. Kind of assay: Monkey platelet aggregation inhibitory test after oral administration (ex vivo, ADP-induced, PRP). Format: in vivo. As to conditions: male crab-eating monkeys, blood before and 30, 60, 120, 180 min after administration, 10 μM ADP, FIG. 1. The protocol: Male crab-eating monkeys (4 to 6 kg) were retained in monkey chairs. After 30 minutes of acclimatization, the compound of Example 1-13 was orally administered to the monkeys using catheters (16 Fr).
Blood was collected via saphenous veins before, and 30, 60, 120 and 180 minutes after administration of drug solutions using a syringe that had previously contained a 3.8% sodium citrate solution in a volume that was one-tenth of that of collected blood.
The collected blood was centrifuged at 1000 rpm for 10 minutes. Upper portions of the resultants were collected as platelet rich plasma (PRP). PRP was apportioned into small test tubes, and 10 μM of ADP was added thereto to induce platelet aggregation. The degree of platelet aggregation was measured as a change in turbidity using an aggregometer (Hematracer 1, Nikobioscience).
In the case of `O=C(O)COc1cccc2c1OCCN2CCN(C(=O)c1ccccc1)c1ccc(Br)cc1` [Example 1-13], the “inhibitory effect of platelet aggregation after oral administration” value was “strong inhibitory effect of platelet aggregation”.

One may read the IC50 as the concentration needed to halve the response being measured.
